Laboratory results taken from ChEMBL document CHEMBL1201862, “PubChem BioAssay data set” (2004).
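Results reflect a 48-hour exposure of cells in 96-well plates to compound at five concentrations. Abbreviation: GI50, concentration required for 50% inhibition of growth.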 Activity calls are given as the source filed them. Rule as the data show it: active = GI50 up to about 1.1 µM and inactive = higher.

What was measured:
Test in all cases: DTP human tumour cell line panel, 48 h
MCF7 = system: MCF7
MDA-N = system: MDA-N
SW-620 = system: SW-620
LOX IMVI = system: LOX IMVI
U-251 = system: U-251
786-0 = system: 786-0
HCT-15 = system: HCT-15
SK-MEL-2 = system: SK-MEL-2
CAKI-1 = system: CAKI-1
MOLT-4 = system: MOLT-4
BT-549 = system: BT-549
PC-3 = system: PC-3
M14 = system: M14
SF-268 = system: SF-268
NCI/ADR-RES = system: NCI/ADR-RES
HL-60 = system: HL-60
HT-29 = system: HT-29
UO-31 = system: UO-31
TK-10 = system: TK-10

Row | Structure (SMILES) | GI50 (MCF7) | GI50 (MDA-N) | GI50 (SW-620) | GI50 (LOX IMVI) | GI50 (U-251) | GI50 (786-0) | GI50 (HCT-15) | GI50 (SK-MEL-2) | GI50 (CAKI-1) | GI50 (MOLT-4) | GI50 (BT-549) | GI50 (PC-3) | GI50 (M14) | GI50 (SF-268) | GI50 (NCI/ADR-RES) | GI50 (HL-60) | GI50 (HT-29) | GI50 (UO-31) | GI50 (TK-10)
1 | O=C(O)CCC1COc2ccccc2O1 (stereo not given) | > 10 µM (inactive) | > 10 µM (inactive) | > 10 µM (inactive) | > 10 µM (inactive) | > 10 µM (inactive) | > 10 µM (inactive) | > 10 µM | > 10 µM (inactive) | > 10 µM (inactive) | > 10 µM (inactive) | > 10 µM (inactive) | > 10 µM (inactive) | > 10 µM (inactive) | > 10 µM (inactive) | > 10 µM (inactive) | > 10 µM (inactive) | > 10 µM (inactive) | > 10 µM (inactive) | > 10 µM (inactive)
2 | COC(=O)CCCc1nc2ccccc2nc1/N=N/c1ccccc1 | 30.8 µM (inactive) | 48.2 µM (inactive) | 47.5 µM (inactive) | 16.6 µM (inactive) | 53.6 µM (inactive) | 38.1 µM (inactive) | 23.9 µM | > 100 µM (inactive) | 41.6 µM (inactive) | 9.93 µM (inactive) | 53.7 µM (inactive) | 39.5 µM (inactive) | 27.6 µM (inactive) | 51.2 µM (inactive) | 18.7 µM (inactive) | 2.57 µM (inactive) | 32.1 µM (inactive) | 25.9 µM (inactive) | > 100 µM (inactive)
3 | S=C1NC(c2ccccc2)NC(c2ccccc2)S1 (stereo not given) | 28.2 µM (inactive) | > 100 µM (inactive) | > 100 µM (inactive) | 78.9 µM (inactive) | 39.4 µM (inactive) | > 100 µM (inactive) | 51.1 µM | > 100 µM (inactive) | > 100 µM (inactive) | > 100 µM (inactive) | > 100 µM (inactive) | > 100 µM (inactive) | > 100 µM (inactive) | > 100 µM (inactive) | > 100 µM (inactive) | > 100 µM (inactive) | 14.1 µM (inactive) | > 100 µM (inactive) | > 100 µM (inactive)
4 | CCOC(=O)C(C(=O)OCC)=C1NC2(c3ccccc3Nc3ccccc32)C(C#N)S1 (stereo not given) | 3.39 µM (inactive) | 14.4 µM (inactive) | 12.4 µM (inactive) | 13.6 µM (inactive) | 12.1 µM (inactive) | 10.4 µM (inactive) | 5.78 µM | 11.6 µM (inactive) | 16.3 µM (inactive) | 3.53 µM (inactive) | 14.2 µM (inactive) | 4.52 µM (inactive) | 7.46 µM (inactive) | 13.5 µM (inactive) | 10.4 µM (inactive) | 21.9 µM (inactive) | 4.21 µM (inactive) | 12.7 µM (inactive) | 13.5 µM (inactive)
5 | C1=C\SS/C=C\SS/1 | 15.9 µM (inactive) | 40.3 µM (inactive) | 33.1 µM (inactive) | 29 µM (inactive) | 34.8 µM (inactive) | 17 µM (inactive) | 14.4 µM | 48.4 µM (inactive) | > 10 µM (inactive) | 12.9 µM (inactive) | 97.1 µM (inactive) | 38.5 µM (inactive) | 29.5 µM (inactive) | 40.5 µM (inactive) | 46 µM (inactive) | 7.57 µM (inactive) | 15.6 µM (inactive) | 22.2 µM (inactive) | 40.7 µM (inactive)
6 | CN(CCNC(=O)c1nn(-c2ccccc2)c2c1Cc1ccccc1-2)CCNC(=O)c1nn(-c2ccccc2)c2c1Cc1ccccc1-2 | 1.64 µM (inactive) | 1.73 µM (inactive) | 1.48 µM (inactive) | 1.74 µM (inactive) | 1.71 µM (inactive) | 1.66 µM (inactive) | 1.88 µM | 1.86 µM (inactive) | 2.53 µM (inactive) | 3.65 µM (inactive) | 4.06 µM (inactive) | 2.19 µM (inactive) | 1.79 µM (inactive) | 2.02 µM (inactive) | 2.17 µM (inactive) | 1.32 µM (inactive) | 1.85 µM (inactive) | 1.63 µM (inactive) | 2.04 µM (inactive)
7 | Cc1ccc(NC(=S)N/N=C(/c2ccccc2)c2ccccn2)cc1 | 0.0164 µM (active) | 0.708 µM (active) | < 0.0183 µM (active) | 0.0346 µM (active) | 0.0265 µM (active) | 0.0284 µM (active) | < 0.019 µM | 4.52 µM (inactive) | 0.059 µM (active) | < 0.0118 µM (active) | 4.25 µM (inactive) | < 0.0154 µM (active) | < 0.01 µM (active) | < 0.0233 µM (active) | 0.0302 µM (active) | < 0.0121 µM (active) | 0.0541 µM (active) | 0.177 µM (active) | 0.0631 µM (active)
8 | O=C1c2c(F)c(F)c(F)c(F)c2SC2=Nc3cccc4cccc(c34)N12 | 3.78 µM (inactive) | 5.05 µM (inactive) | 3.29 µM (inactive) | 2.77 µM (inactive) | 3.78 µM (inactive) | 5.51 µM (inactive) | 4.92 µM | 2.75 µM (inactive) | 14.9 µM (inactive) | 2.16 µM (inactive) | 10.9 µM (inactive) | 5.68 µM (inactive) | 2.92 µM (inactive) | 3.61 µM (inactive) | 2.77 µM (inactive) | 2.07 µM (inactive) | 7.48 µM (inactive) | 9.16 µM (inactive) | 13.3 µM (inactive)
9 | CC(=O)c1[nH]c(NCc2ccccc2)c(C(=S)Nc2ccccc2)c1N | 19.3 µM (inactive) | 18.7 µM (inactive) | 32.1 µM (inactive) | 17.4 µM (inactive) | 17.3 µM (inactive) | 17.3 µM (inactive) | 19.1 µM | 0.258 µM (active) | 31 µM (inactive) | 36.7 µM (inactive) | 23.5 µM (inactive) | 39.6 µM (inactive) | 18.9 µM (inactive) | 21.5 µM (inactive) | 30.6 µM (inactive) | 5.32 µM (inactive) | 31.3 µM (inactive) | 0.452 µM (active) | 27.5 µM (inactive)
10 | Cn1c2c(c3ccccc31)CCN1C(=O)C34CCCC3CC21S4 (stereo not given) | > 100 µM (inactive) | > 100 µM (inactive) | > 100 µM (inactive) | > 100 µM (inactive) | > 100 µM (inactive) | > 100 µM (inactive) | > 100 µM | > 100 µM (inactive) | > 100 µM (inactive) | > 100 µM (inactive) | > 100 µM (inactive) | 95.1 µM (inactive) | > 100 µM (inactive) | > 100 µM (inactive) | > 100 µM (inactive) | > 100 µM (inactive) | > 100 µM (inactive) | > 100 µM (inactive) | > 100 µM (inactive)
11 | COc1cccc2c(=O)c3c(n(C)c12)OC(C(C)C)C3 (stereo not given) | > 100 µM (inactive) | > 100 µM (inactive) | > 100 µM (inactive) | > 100 µM (inactive) | > 100 µM (inactive) | > 100 µM (inactive) | 46.9 µM | > 100 µM (inactive) | 42.8 µM (inactive) | 16.9 µM (inactive) | > 100 µM (inactive) | > 100 µM (inactive) | > 100 µM (inactive) | > 100 µM (inactive) | 55.7 µM (inactive) | 69.7 µM (inactive) | > 100 µM (inactive) | 40.7 µM (inactive) | > 100 µM (inactive)
12 | CC12CCCCC1=C(F)C(F)(F)S2 (stereo not given) | 34.4 µM (inactive) | 21.9 µM (inactive) | 24.5 µM (inactive) | 31.8 µM (inactive) | 98.6 µM (inactive) | 20.8 µM (inactive) | 32.7 µM | 75.2 µM (inactive) | 21.5 µM (inactive) | 11.3 µM (inactive) | 19.1 µM (inactive) | 40.7 µM (inactive) | 37.6 µM (inactive) | > 66.4 µM (inactive) | 40.1 µM (inactive) | 6.64 µM (inactive) | 20.8 µM (inactive) | 15 µM (inactive) | 39.2 µM (inactive)
13 | CC(C)(C)OC(=O)c1ccc(NCC2=C(Br)C(=O)C=CC2=O)cc1 | 19.3 µM (inactive) | 20 µM (inactive) | 16.4 µM (inactive) | 14.7 µM (inactive) | 22.3 µM (inactive) | 17.5 µM (inactive) | 15.6 µM | 28.6 µM (inactive) | 11.6 µM (inactive) | 1.42 µM (inactive) | 11.4 µM (inactive) | 27.4 µM (inactive) | 27.5 µM (inactive) | 19.6 µM (inactive) | 20.1 µM (inactive) | 1.79 µM (inactive) | 17.5 µM (inactive) | 14 µM (inactive) | 22.1 µM (inactive)
14 | C[C@H](CCC(=O)O)[C@H]1CC[C@H]2[C@@H]3C(=O)C[C@@H]4C[C@H](O)CC[C@]4(C)[C@H]3C[C@H](O)[C@]12C | > 100 µM (inactive) | > 100 µM (inactive) | > 100 µM (inactive) | > 100 µM (inactive) | > 100 µM (inactive) | > 100 µM (inactive) | > 100 µM | > 100 µM (inactive) | > 100 µM (inactive) | > 100 µM (inactive) | > 100 µM (inactive) | > 100 µM (inactive) | > 100 µM (inactive) | > 100 µM (inactive) | > 100 µM (inactive) | > 100 µM (inactive) | > 100 µM (inactive) | > 100 µM (inactive) | > 100 µM (inactive)
15 | COc1ccc(/C=C/C(=O)c2ccccc2)cc1OC | 2.52 µM (inactive) | 4.13 µM (inactive) | 4.23 µM (inactive) | 5.46 µM (inactive) | 9.59 µM (inactive) | 4.97 µM (inactive) | 7.03 µM | 17.3 µM (inactive) | 15.7 µM (inactive) | 13.5 µM (inactive) | 18.2 µM (inactive) | 11.3 µM (inactive) | 15 µM (inactive) | 14.5 µM (inactive) | 21.2 µM (inactive) | 8.89 µM (inactive) | 5.3 µM (inactive) | 13.3 µM (inactive) | 17.2 µM (inactive)
